Patent publication US4052455A, “Styrylamidines” (Mead Johnson & Company, priority 1975, dated 1977)
Where a name gives a salt, the structure may show the parent alone.

Experiments:
platelet aggregation = test: Born/O'Brien nephelometric platelet aggregation test in platelet rich plasma (ADP or collagen induced); assay type: cell-based; settings: human or rabbit platelet rich plasma, 50% or more reduction, read-out: Concentration at which collagen or adenosine diphosphate induced platelet aggregation is reduced by 50% or more
Description: (§1) Measurement of the antithrombogenic activity of the compounds of Formula I is carried out by standard pharmacological tests essentially described by Born, Nature, 194, 927 (1962) and O'Brien, J. Clin. Path., 15, 446 (1962). This test comprises a nephelometric method is which the change in turbidity of a specimen of platelet rich plasma (human or rabbit) is measured on causation of platelet aggregation by addition of a thrombogenic inducing agent such as adenosine diphosphate or collagen. The compounds of the present invention are effective antithrombogenic agents according to this test at concentrations in the order of about 0.5 to 90 mcg./0.5 ml. platelet rich plasma. In the intact animal, the antithrombogenic effect is readily observed by applying the above test to blood samples withdrawn prior to and after administration of a compound of the present invention.

[1] = test system: blood platelet aggregation; test: Oral administration to rabbits; inhibition of blood platelet aggregation induced by ADP or collagen in platelet rich plasma (Example 56); assay type: in vivo; settings: rabbit, oral single dose 25 mg./kg.; for % Inhibition of Blood Platelet Aggregation Induced by ADP: ADP 0.25-1.0 microgram; for % Inhibition of Blood Platelet Aggregation Induced by Collagen: lowest amount of collagen giving maximal aggregation
Description: as §1
The styrylamidine is orally administered to each rabbit in a group of 2-6 rabbits at a single dose of 25 mg./kg. body weight. A 8 ml. portion of blood is drawn just prior to dosing in order to obtain a control value and at various time periods thereafter. Platelet rich plasma is prepared from each blood sample by centrifugation at 200 times gravity for 10 min. at room temperature. Samples (0.5 ml.) of platelet rich plasma are tested for their ability to aggregate with either collagen or adenosine-5'-diphosphate added as specified in the modification of Born and O'Brien method which has been fully described hereinbefore. The results shown below indicate the inhibition of blood platelet aggregation induced by the lowest amount of collagen giving maximal aggregation or 0.25-1.0 microgram adenosine-5'-diphosphate for representative amidines.

[2] = test system: phenylquinone writhing syndrome; test: Phenylquinone writhing test (analgesic activity); assay type: in vivo; settings: mice
Description: In this test, groups of 10-20 mice are injected subcutaneously or orally with different doses of the test compound. At predetermined time intervals, the mice receive 2.5 mg./kg. phenylquinone intraperitoneally. The total number of writhing episodes is counted for each mouse for 10 min. and the average percent decrease in writhing recorded for each dose.
The novel styrylsulfonylamidines of Formula V in addition to being useful as precursors to the styrylamidine products of Formula I have analgesic utility as measured in the foregoing phenylquinone writhing test. A preferred class of styrylsulfonylamidines of Formula V having particularly significant analgesic activity are those wherein R1 and R2 are each hydrogen, nitro or halogen and A is phenyl or lower alkyl of from 1 to 8 carbon atoms inclusive. Analgesic activity at the time interval indicated following administration of compounds representative of this class are given in Table I below.

[3] = subcutaneous 6 mg./kg., time interval 30 min.

In the case of `CC(=N)N/C=C/c1ccc(C2CCCCC2)c(Br)c1` [N-(3-BROMO-4-CYCLOHEXYLSTYRYL)ACETAMIDINE HYDROCHLORIDE], the IC50 (platelet aggregation) is reported as under 30 µg/mL.

Work on `N=C(N/C=C/c1ccccc1)c1ccccc1` [N-styrylbenzamidine hydrochloride, N-STYRYLBENZAMIDINE HYDROCHLORIDE] yielded an IC50 (platelet aggregation) of under 30 µg/mL.

With `N=C(N/C=C/c1ccc(Cl)c(Cl)c1)C1CC1` [N-(3,4-DICHLOROSTYRYL)CYCLOPROPANECARBOXAMIDINE HYDROCHLORIDE] the “% Inhibition of Blood Platelet Aggregation Induced by ADP” value (“% Inhibition … by ADP” for short) ([1]; 1 hr.) was 60%, the “% Inhibition … by ADP” value ([1]; 2 hrs.) was 55% and the “% Inhibition … by ADP” value ([1]; 4 hrs.) was 90%. The “% Inhibition … by ADP” value ([1]; 6 hrs.) was 75%, the “% Inhibition … by ADP” value ([1]; 24 hrs.) was 5% and the “% Inhibition of Blood Platelet Aggregation Induced by Collagen” value (“% Inhibition … by Collagen” below) ([1]; 1 hr.) was 65%. For the same molecule, the “% Inhibition … by Collagen” value ([1]; 2 hrs.) was 85%, the “% Inhibition … by Collagen” value ([1]; 4 hrs.) was 97% and the “% Inhibition … by Collagen” value ([1]; 6 hrs.) was 87%. The “% Inhibition … by Collagen” value ([1]; 24 hrs.) was 15%.

In the case of `N=C(N/C=C/c1ccc(N)cc1)c1cccc(N)c1` [3-AMINO-N-(4-AMINOSTYRYL)BENZAMIDINE TRIHYDROCHLORIDE MONOHYDRATE], the IC50 (platelet aggregation) is reported as under 30 µg/mL.

For `N=C(N/C=C/c1ccc([N+](=O)[O-])cc1)c1cc(N)cc(N)c1` [3,5-DIAMINO-N-(4-NITROSTYRYL)-BENZAMIDINE TRIHYDROCHLORIDE], the IC50 (platelet aggregation) was under 30 µg/mL.

`CC(=O)Nc1ccc(/C=C/NC(=N)c2ccccc2)cc1` [N-(4-ACETAMIDOSTYRYL)BENZAMIDINE HYDROCHLORIDE] gave an IC50 (platelet aggregation) of under 30 µg/mL.

Work on `N=C(N/C=C/c1ccc(N)cc1)c1ccccc1` [N-(4-AMINOSTYRYL)BENZAMIDINE DIHYDROCHLORIDE] yielded an IC50 (platelet aggregation) of under 30 µg/mL.

Work on `N=C(N/C=C/c1ccccc1N)c1ccccc1` [N-(2-AMINOSTYRYL)BENZAMIDINE DIHYDROCHLORIDE] yielded an IC50 (platelet aggregation) of under 30 µg/mL.

`CN(C)c1ccc(C(=N)N/C=C/c2ccc([N+](=O)[O-])cc2)cc1` [4-(DIMETHYLAMINO)-N-(4-NITROSTYRYL)-BENZAMIDINE ISETHIONATE] gave an IC50 (platelet aggregation) of under 30 µg/mL.

In the case of `CCCC(=N)N/C=C/c1ccc(Cl)c(Cl)c1` [N-(3,4-DICHLOROSTYRYL)BUTYRAMIDINE HYDROCHLORIDE], the “% Inhibition … by ADP” value ([1]; 1 hr.) is reported as 18%, the “% Inhibition … by ADP” value ([1]; 2 hrs.) is reported as 67% and the “% Inhibition … by ADP” value ([1]; 4 hrs.) is reported as 37%. The “% Inhibition … by ADP” value ([1]; 6 hrs.) was 30%, the “% Inhibition … by ADP” value ([1]; 24 hrs.) was 0% and the “% Inhibition … by Collagen” value ([1]; 1 hr.) was 30%. The “% Inhibition … by Collagen” value ([1]; 2 hrs.) was 92%, the “% Inhibition … by Collagen” value ([1]; 4 hrs.) was 32% and the “% Inhibition … by Collagen” value ([1]; 6 hrs.) was 45%. The “% Inhibition … by Collagen” value ([1]; 24 hrs.) was 0%.

`CC(=N)NS(=O)(=O)C=Cc1ccc(Cl)c(Cl)c1` [N-[(3,4-DICHLOROSTYRYL)SULFONYL]ACETAMIDINE] was tested, and the “Analgesic activity, Percent Inhibition” value ([2]; oral 100 mg./kg., time interval 120 min.) was 36% and the “Analgesic activity, Percent Inhibition” value [2, 3] was 28%.

For `CC(=N)NS(=O)(=O)C=Cc1ccc([N+](=O)[O-])cc1` [N-(4-nitrostyrylsulfonyl)-acetamidine, N-(4-NITROSTYRYLSULFONYL)ACETAMIDINE], the “Analgesic activity, Percent Inhibition” value ([2]; subcutaneous 6 mg./kg., time interval 60 min.) was 36%.

`N=C(N/C=C/c1ccc(Cl)c(Cl)c1)C1CC1` [N-(3,4-dichlorostyryl)cyclopropanecarboxamidine] was tested, and the IC50 (platelet aggregation) was under 30 µg/mL.

For `CC(=N)NS(=O)(=O)C=Cc1ccccc1` [N-(styrylsulfonyl)acetamidine, N-(STYRYLSULFONYL)ACETAMIDINE], the “Analgesic activity, Percent Inhibition” value ([2]; subcutaneous 6 mg./kg., time interval 15 min.) was 38%.

With `N=C(N/C=C/c1ccc([N+](=O)[O-])cc1)c1ccc(N)cc1` [4-AMINO-N-(4-NITROSTYRYL)BENZAMIDINE HYDROCHLORIDE] the IC50 (platelet aggregation) was under 30 µg/mL.

`N=C(N/C=C/c1ccc(Cl)c(Cl)c1)c1ccccc1` [N-(3,4-DICHLOROSTYRYL)BENZAMIDINE HYDROCHLORIDE] was tested, and the “% Inhibition … by ADP” value ([1]; 0.5 hrs.) was 61%, the “% Inhibition … by ADP” value ([1]; 2 hrs.) was 54% and the “% Inhibition … by ADP” value ([1]; 4 hrs.) was 30%. The “% Inhibition … by ADP” value ([1]; 6 hrs.) was 22%, the “% Inhibition … by ADP” value ([1]; 24 hrs.) was 0% and the “% Inhibition … by Collagen” value ([1]; 0.5 hrs.) was 73%. For the same molecule, the “% Inhibition … by Collagen” value ([1]; 2 hrs.) was 65%, the “% Inhibition … by Collagen” value ([1]; 4 hrs.) was 26% and the “% Inhibition … by Collagen” value ([1]; 6 hrs.) was 3%. For the same molecule, the “% Inhibition … by Collagen” value ([1]; 24 hrs.) was 0%.

In the case of `N=C(N/C=C/c1ccc(N)cc1)c1ccc(N)cc1` [4-AMINO-N-(4-AMINOSTYRYL)BENZAMIDINE TRIHYDROCHLORIDE], the IC50 (platelet aggregation) is reported as under 30 µg/mL.

In the case of `CC(=N)N/C=C/c1ccc(Cl)c(Cl)c1` [N-(3,4-DICHLOROSTYRYL)ACETAMIDINE HYDROCHLORIDE], the “% Inhibition … by ADP” value ([1]; 1 hr.) is reported as 50%, the “% Inhibition … by ADP” value ([1]; 2 hrs.) is reported as 52% and the “% Inhibition … by ADP” value ([1]; 4 hrs.) is reported as 67%. The “% Inhibition … by ADP” value ([1]; 6 hrs.) was 55%, the “% Inhibition … by ADP” value ([1]; 24 hrs.) was 0% and the “% Inhibition … by Collagen” value ([1]; 1 hr.) was 67%. The “% Inhibition … by Collagen” value ([1]; 2 hrs.) was 50%, the “% Inhibition … by Collagen” value ([1]; 4 hrs.) was 85% and the “% Inhibition … by Collagen” value ([1]; 6 hrs.) was 55%. The “% Inhibition … by Collagen” value ([1]; 24 hrs.) was 0% and the IC50 (platelet aggregation) was under 30 µg/mL.

For `N=C(NS(=O)(=O)C=Cc1ccccc1)c1ccccc1` [N-(styrylsulfonyl)benzamidine, N-(STYRYLSULFONYL)BENZAMIDINE], the “Analgesic activity, Percent Inhibition” value ([2]; oral 100 mg./kg., time interval 60 min.) was 26% and the “Analgesic activity, Percent Inhibition” value [2, 3] was 36%.

For `CC(C)(C)C(=N)N/C=C/c1ccc(Cl)c(Cl)c1` [N-(3,4-DICHLOROSTYRYL)-2,2-DIMETHYLPROPIONAMIDINE], the “% Inhibition … by ADP” value ([1]; 1 hr.) was 60%, the “% Inhibition … by ADP” value ([1]; 2 hrs.) was 25% and the “% Inhibition … by ADP” value ([1]; 4 hrs.) was 67%. For the same molecule, the “% Inhibition … by ADP” value ([1]; 6 hrs.) was 87%, the “% Inhibition … by ADP” value ([1]; 24 hrs.) was 0% and the “% Inhibition … by Collagen” value ([1]; 1 hr.) was 78%. The “% Inhibition … by Collagen” value ([1]; 2 hrs.) was 80%, the “% Inhibition … by Collagen” value ([1]; 4 hrs.) was 95% and the “% Inhibition … by Collagen” value ([1]; 6 hrs.) was 95%. The “% Inhibition … by Collagen” value ([1]; 24 hrs.) was 0%.
